Assays:
[1] = biological target: NAMPT (human, recombinant, C-terminally His-tagged) (Homo sapiens, UniProt P43490); experiment: Time-Resolved Fluorescence Resonance Energy Transfer (TR-FRET) Binding Assay of NAMPT; conditions: without substrates; 6.8 nM NAMPT, 200 nM probe, 3 hours equilibration
Summary of the method: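 11-pt half-log compound series; final 6.8 nM NAMPT, 200 nM OG488 nicotinamide-competitive probe, 1 nM Tb-anti-His Ab, 2% DMSO, HEPES pH 7.5/NaCl/MgCl2/DTT/glycerol buffer. 3 h RT equilibration. Em520/Em495 ratio (Ex 337 nm), control-normalized, 4-parameter fit → IC50.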

NAMPT = NAMPT (Homo sapiens, UniProt P43490); experiment: TR-FRET Binding Assay of NAMPT with PRPP; conditions: with 200 μM PRPP and 2.5 mM ATP; 2 nM NAMPT, 2 nM probe, 16 hours equilibration
Chain of NAMPT (P43490 whole entry): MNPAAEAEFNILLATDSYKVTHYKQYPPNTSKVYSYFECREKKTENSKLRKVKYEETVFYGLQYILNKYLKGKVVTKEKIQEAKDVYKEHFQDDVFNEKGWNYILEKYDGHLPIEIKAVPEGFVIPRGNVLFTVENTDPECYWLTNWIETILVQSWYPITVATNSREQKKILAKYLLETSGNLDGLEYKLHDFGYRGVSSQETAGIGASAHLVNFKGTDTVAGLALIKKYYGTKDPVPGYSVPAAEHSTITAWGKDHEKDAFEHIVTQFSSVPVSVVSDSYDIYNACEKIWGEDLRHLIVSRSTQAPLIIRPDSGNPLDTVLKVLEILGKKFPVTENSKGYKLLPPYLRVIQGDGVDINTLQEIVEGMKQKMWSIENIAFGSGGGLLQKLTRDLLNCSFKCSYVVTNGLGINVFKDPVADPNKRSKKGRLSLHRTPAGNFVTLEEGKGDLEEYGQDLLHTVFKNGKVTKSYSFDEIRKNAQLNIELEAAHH
Summary of the method: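 TR-FRET probe-displacement binding with 2 nM NAMPT, 2 nM probe and 1 nM Tb-anti-His antibody, run in the presence of 200 μM PRPP and 2.5 mM ATP at 2% DMSO. Equilibrated 16 hours before reading so test compounds could undergo enzymatic modification.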

PC3 cells = experiment: NAMPT Cell Proliferation Assay; assay type: cell-based; conditions: Homo sapiens, PC-3, 120 h, 5 days incubation, cell viability by Cell Titer Glo
Summary of the method: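 Proliferation of PC3 cells treated 5 days with a 10-fold compound series (top 10 μM) was quantified by Cell Titer Glo luminescence; IC50s were fitted from percent inhibition.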

Chain of NAMPT (human, recombinant, C-terminally His-tagged) (P43490 whole entry): as above

SMILES	IC50 [1] [nM]	IC50 (NAMPT) [nM]	IC50 (PC3 cells) [nM]
O=C(NCc1ccn2ccnc2c1)c1ccc(C2CCN(C(=O)c3cccc(F)c3)CC2)cc1 [Example 516, 4-[1-(3-fluorobenzoyl)piperidin-4-yl]-N-(imidazo[1,2-a]pyridin-7-ylmethyl)benzamide]	117	0.266	21.3
Cn1cc(C(=O)N2CCC(c3ccc(C(=O)NCc4ccn5ccnc5c4)cc3)CC2)cn1 [Example 517, N-(imidazo[1,2-a]pyridin-7-ylmethyl)-4-{1-[(1-methyl-1H-pyrazol-4-yl)carbonyl]piperidin-4-yl}benzamide]	330	0.264	72.2
CCC(=O)C(=O)N1CCC(c2ccc(C(=O)NCc3ccn4ccnc4c3)cc2)CC1 [Example 518, N-(imidazo[1,2-a]pyridin-7-ylmethyl)-4-[1-(2-oxobutanoyl)piperidin-4-yl]benzamide]	234	0.169	34.8
Cc1cc(C(=O)N2CCC(c3ccc(C(=O)NCc4ccn5ccnc5c4)cc3)CC2)c(C)o1 [Example 519, 4-{1-[(2,5-dimethylfuran-3-yl)carbonyl]piperidin-4-yl}-N-(imidazo[1,2-a]pyridin-7-ylmethyl)benzamide]	218	0.338	60.9
N#Cc1ccc(C(=O)N2CCC(c3ccc(C(=O)NCc4ccn5ccnc5c4)cc3)CC2)cc1 [Example 520, 4-[1-(4-cyanobenzoyl)piperidin-4-yl]-N-(imidazo[1,2-a]pyridin-7-ylmethyl)benzamide]	565	0.301	101
N#Cc1cccc(C(=O)N2CCC(c3ccc(C(=O)NCc4ccn5ccnc5c4)cc3)CC2)c1 [Example 521, 4-[1-(3-cyanobenzoyl)piperidin-4-yl]-N-(imidazo[1,2-a]pyridin-7-ylmethyl)benzamide]	413	0.292	93.5
O=C(NCc1ccn2ccnc2c1)c1ccc(C2CCN(C(=O)c3cc(F)ccc3F)CC2)cc1 [Example 522, 4-[1-(2,5-difluorobenzoyl)piperidin-4-yl]-N-(imidazo[1,2-a]pyridin-7-ylmethyl)benzamide]	58.1	0.199	6.73
O=C(NCc1ccn2ccnc2c1)c1ccc(C2CCN(C(=O)c3cnccn3)CC2)cc1 [Example 523, N-(imidazo[1,2-a]pyridin-7-ylmethyl)-4-[1-(pyrazin-2-ylcarbonyl)piperidin-4-yl]benzamide]	343	0.422	17.1
Cc1ccsc1C(=O)N1CCC(c2ccc(C(=O)NCc3ccn4ccnc4c3)cc2)CC1 [Example 524, N-(imidazo[1,2-a]pyridin-7-ylmethyl)-4-{1-[(3-methylthiophen-2-yl)carbonyl]piperidin-4-yl}benzamide]	24.7	0.169	2.46
Cc1noc(C)c1C(=O)N1CCC(c2ccc(C(=O)NCc3ccn4ccnc4c3)cc2)CC1 [Example 525, 4-{1-[(3,5-dimethyl-1,2-oxazol-4-yl)carbonyl]piperidin-4-yl}-N-(imidazo[1,2-a]pyridin-7-ylmethyl)benzamide]	86.4	0.213	6.77
COc1cccc(C(=O)N2CCC(c3ccc(C(=O)NCc4ccn5ccnc5c4)cc3)CC2)c1 [Example 526, N-(imidazo[1,2-a]pyridin-7-ylmethyl)-4-[1-(3-methoxybenzoyl)piperidin-4-yl]benzamide]	126	0.275	60.3
O=C(NCc1ccn2ccnc2c1)c1ccc(C2CCN(C(=O)c3cccc(Cl)c3)CC2)cc1 [Example 527, 4-[1-(3-chlorobenzoyl)piperidin-4-yl]-N-(imidazo[1,2-a]pyridin-7-ylmethyl)benzamide]	141	0.265	59.8
COc1ccc(C(=O)N2CCC(c3ccc(C(=O)NCc4ccn5ccnc5c4)cc3)CC2)cc1 [Example 528, N-(imidazo[1,2-a]pyridin-7-ylmethyl)-4-[1-(4-methoxybenzoyl)piperidin-4-yl]benzamide]	126	0.276	24
O=C(NCc1ccn2ccnc2c1)c1ccc(C2CCN(C(=O)c3ccc(Cl)cc3)CC2)cc1 [Example 529, 4-[1-(4-chlorobenzoyl)piperidin-4-yl]-N-(imidazo[1,2-a]pyridin-7-ylmethyl)benzamide]	248	0.283	227
O=C(NCc1ccn2ccnc2c1)c1ccc(C2CCN(C(=O)c3cc(F)cc(F)c3)CC2)cc1 [Example 530, 4-[1-(3,5-difluorobenzoyl)piperidin-4-yl]-N-(imidazo[1,2-a]pyridin-7-ylmethyl)benzamide]	378	0.791	82.1
O=C(NCc1ccn2ccnc2c1)c1ccc(C2CCN(C(=O)C3CC3)CC2)cc1 [Example 531, 4-[1-(cyclopropylcarbonyl)piperidin-4-yl]-N-(imidazo[1,2-a]pyridin-7-ylmethyl)benzamide]	333	0.253	52.9
CCC(=O)N1CCC(c2ccc(C(=O)NCc3ccn4ccnc4c3)cc2)CC1 [Example 532, N-(imidazo[1,2-a]pyridin-7-ylmethyl)-4-(1-propanoylpiperidin-4-yl)benzamide]	338	0.178	92.7
Cn1cccc1C(=O)N1CCC(c2ccc(C(=O)NCc3ccn4ccnc4c3)cc2)CC1 [Example 533, N-(imidazo[1,2-a]pyridin-7-ylmethyl)-4-{1-[(1-methyl-1H-pyrrol-2-yl)carbonyl]piperidin-4-yl}benzamide]	101	0.169	17.4
CC(C)CC(=O)N1CCC(c2ccc(C(=O)NCc3ccn4ccnc4c3)cc2)CC1 [Example 534, N-(imidazo[1,2-a]pyridin-7-ylmethyl)-4-[1-(3-methylbutanoyl)piperidin-4-yl]benzamide]	145	0.251	5.08
O=C(NCc1ccn2ccnc2c1)c1ccc(C2CCN(C(=O)c3ccncc3)CC2)cc1 [Example 535, N-(imidazo[1,2-a]pyridin-7-ylmethyl)-4-[1-(pyridin-4-ylcarbonyl)piperidin-4-yl]benzamide]	297	0.325	28.5
CC(C)C(C)C(=O)N1CCC(c2ccc(C(=O)NCc3ccn4ccnc4c3)cc2)CC1 (stereo not drawn) [Example 536, 4-[1-(2,3-dimethylbutanoyl)piperidin-4-yl]-N-(imidazo[1,2-a]pyridin-7-ylmethyl)benzamide]	77.6	0.202	3.04
O=C(NCc1ccn2ccnc2c1)c1ccc(C2CCN(C(=O)c3cccnc3)CC2)cc1 [Example 537, N-(imidazo[1,2-a]pyridin-7-ylmethyl)-4-[1-(pyridin-3-ylcarbonyl)piperidin-4-yl]benzamide]	461	0.23	43.1
CC1(C(=O)N2CCC(c3ccc(C(=O)NCc4ccn5ccnc5c4)cc3)CC2)CC1 [Example 538, N-(imidazo[1,2-a]pyridin-7-ylmethyl)-4-{1-[(1-methylcyclopropyl)carbonyl]piperidin-4-yl}benzamide]	275	0.514	3.33
COc1ccccc1C(=O)N1CCC(c2ccc(C(=O)NCc3ccn4ccnc4c3)cc2)CC1 [Example 539, N-(imidazo[1,2-a]pyridin-7-ylmethyl)-4-[1-(2-methoxybenzoyl)piperidin-4-yl]benzamide]	98.5	0.31	3.47
O=C(NCc1ccn2ccnc2c1)c1ccc(C2CCN(C(=O)CC(F)(F)F)C2)s1 (stereo not drawn) [Example 540, N-(imidazo[1,2-a]pyridin-7-ylmethyl)-5-[1-(3,3,3-trifluoropropanoyl)pyrrolidin-3-yl]thiophene-2-carboxamide]	266	0.305	74
CC(C)C(=O)N1CCC(c2ccc(C(=O)NCc3ccn4ccnc4c3)s2)C1 (stereo not drawn) [Example 541, N-(imidazo[1,2-a]pyridin-7-ylmethyl)-5-[1-(2-methylpropanoyl)pyrrolidin-3-yl]thiophene-2-carboxamide]	175	0.448	64.5
O=C(NCc1ccn2ccnc2c1)c1ccc(C2CCN(C(=O)c3ccccc3)C2)s1 (stereo not drawn) [Example 542, 5-(1-benzoylpyrrolidin-3-yl)-N-(imidazo[1,2-a]pyridin-7-ylmethyl)thiophene-2-carboxamide]	35.1	0.337	2.89
CC(C)C(=O)N1CCC(c2ncc(C(=O)NCc3ccn4ccnc4c3)s2)CC1 [Example 543, N-(imidazo[1,2-a]pyridin-7-ylmethyl)-2-[1-(2-methylpropanoyl)piperidin-4-yl]-1,3-thiazole-5-carboxamide]	1480	0.383	386
CC(C)CC(=O)N1CCC(c2ncc(C(=O)NCc3ccn4ccnc4c3)s2)CC1 [Example 544, N-(imidazo[1,2-a]pyridin-7-ylmethyl)-2-[1-(3-methylbutanoyl)piperidin-4-yl]-1,3-thiazole-5-carboxamide]	871	0.437	647
